In test [1] the target is T1, human mu opioid receptor (Homo sapiens, UniProt P35372).
T1 construct: expressed in transfected cells; host or cells: CHO-K1
The test is described as follows: Radioligand binding assay, human mu opioid receptor. The conditions noted are these: displacement of [3H]-Diprenorphine.

Test [2] has as its target T1, human mu opioid receptor. The test is described as follows: Human mu GTP-Eu nucleotide exchange assay (agonist mediated activation) in CHO-K1 membranes. In kind it is biochemical. The conditions noted are these: bound GTP-Eu relative to DAMGO (IA=100); read-out: intrinsic activity (IA). The method, then: a. Mu Opioid Receptor Membrane Preparation:
Protein concentration was determined using a Bio-Rad Bradford Protein Assay kit. Membranes were stored in frozen aliquots at −80° C., until required. Lyophilized GTP-Eu and GDP were diluted to 10 μM and 2 mM, respectively, in double distilled H2O then mixed and permitted to sit at room temperature for 30 minutes prior to transfer to individual aliquots samples for storage at −20° C.
b. Human Mu GTP-Eu Nucleotide Exchange Assay
GTP-Eu nucleotide exchange assays were performed using the DELPHIA GTP-binding kit (Perkin/Elmer) in AcroWell 96 well filter plates according to the manufacturer's specifications. […] Test compounds were received as 10 mM stock solutions in DMSO, diluted to 400 μM into Assay Buffer containing 0.1% BSA, and serial (1:5) dilutions then made to generate ten concentrations of compound ranging from 40 pM^− 80 μM-GDP and GTP-Eu were diluted to 4 μM and 40 nM, respectively, in Assay Buffer. The assay was performed in a total volume of 100 μL containing 5 μg of membrane protein, test compound ranging from 10 pM-20 μM), 1 μM GDP, and 10 nM GTP-Eu diluted in 10 mM MgCl2, 50 mM NaCl, and 0.0125% BSA, (final assay concentrations). A DAMGO (Tyr-D-Ala-Gly-(methyl)Phe-Gly-ol) concentration-response curve (ranging from 12.8 pM-1 μM) was included on every plate.
Assay plates were prepared immediately prior to assay following the addition of 25 μL of Assay Buffer, 25 μL of test compound, and 25 μL GDP and GTP-Eu. The assay was initiated by the addition of 25 μL membrane protein and allowed to incubate for 30 minutes. The assay plates were then filtered with a Waters vacuum manifold connected to the house vacuum regulated to 10-2 in. Hg and washed with room temperature GTP Wash Solution ([…]). The bottoms of the plates were blotted to remove excess liquid. The plates were then immediately read to determine the amount of bound GTP-Eu by measuring Time Resolved Fluorescence (TRF) on a Packard Fusion Plate ReaderVehicle: DMSO not to exceed 1% final assay concentration.
The amount of bound GTP-Eu is proportional to the degree of activation of the mu opioid receptors by the test compound.

Test [3] relates to morphine-induced analgesia / morphine-induced delayed gastrointestinal transit.
The mark [4] stands for this setting: following subcutaneous administration.

Like-named read-outs stand apart in the source and are kept apart here.

T1 sequence (P35372 whole entry): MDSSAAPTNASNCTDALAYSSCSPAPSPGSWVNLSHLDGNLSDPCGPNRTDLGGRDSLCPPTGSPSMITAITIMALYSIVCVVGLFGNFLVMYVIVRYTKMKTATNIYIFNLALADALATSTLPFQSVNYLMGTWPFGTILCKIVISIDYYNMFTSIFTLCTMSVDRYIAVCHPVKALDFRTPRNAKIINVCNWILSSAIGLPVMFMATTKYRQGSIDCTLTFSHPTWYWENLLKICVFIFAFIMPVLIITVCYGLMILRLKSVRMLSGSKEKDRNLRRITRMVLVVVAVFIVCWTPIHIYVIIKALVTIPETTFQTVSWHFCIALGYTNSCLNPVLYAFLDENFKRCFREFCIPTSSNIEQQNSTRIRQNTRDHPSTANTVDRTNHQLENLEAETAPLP

Molecule `NC(=O)c1cccc([C@H]2C[C@H]3CC[C@@H](C2)N3CCN(CC2CCCCC2)C(=O)[C@@H](O)CO)c1` [Example 58, 3-endo-(8-{2-[cyclohexylmethyl-((S)-2,3-dihydroxy-propionyl)amino]ethyl}-8-aza-bicyclo[3.2.1]oct-3-yl)benzamide] came in with a pKi in test [1] of 9.9. In addition, the Emax in test [2] is -3%. The “peripheral selectivity (hotplate ID50 / intestinal transit ID50)” value is reported as 35 in test [3] (following oral administration) and 300 in test [3] (setting [4]).
Consider `NC(=O)c1cccc([C@H]2C[C@H]3CC[C@@H](C2)N3CCN(CC2CCC(F)(F)CC2)C(=O)CO)c1` [Example 63, 3-endo-(8-{2-[(4,4-difluorocyclohexylmethyl)-(2-hydroxyacetyl)amino]ethyl}-8-azabicyclo[3.2.1]oct-3-yl)benzamide], for which the “peripheral selectivity (hotplate ID50 / intestinal transit ID50)” value in test [3] (following oral administration) and in test [3] (setting [4]) was 22 throughout.
Molecule `CS(=O)(=O)CC(=O)N(CCc1ccccc1)CCN1[C@@H]2CC[C@H]1C[C@@H](c1cccc(C(N)=O)c1)C2` [Example 136, 3-endo-(8-{2-[(2-methanesulfonylacetyl)phenethylamino]ethyl}-8-azabicyclo[3.2.1]oct-3-yl)-benzamide] displayed a pKi in test [1] of 9.8. Moreover, the Emax in test [2] turned out to be 14%.
With `NC(=O)c1cccc([C@H]2C[C@H]3CC[C@@H](C2)N3CCN(CC2CCCCC2)C(=O)CO)c1` [Example 48B, 3-endo-(8-{2-[cyclohexylmethyl-(2-hydroxyacetyl)-amino]-ethyl}-8-azabicyclo[3.2.1]oct-3-yl)benzamide], the “peripheral selectivity (hotplate ID50 / intestinal transit ID50)” value was found to be 42 in test [3] (following oral administration) and 30 in test [3] (setting [4]).
In test [1], `NC(=O)c1cccc([C@H]2C[C@H]3CC[C@@H](C2)N3CCN(Cc2ccccc2)C(=O)CO)c1` [Example 46B, 3-endo-(8-{2-[benzyl-(2-hydroxyacetyl)-amino]ethyl}-8-azabicyclo[3.2.1]oct-3-yl)benzamide] showed a pKi of 10.0. The Emax in test [2] was -3%.
On to `NC(=O)c1cccc([C@H]2C[C@H]3CC[C@@H](C2)N3CCN(CCc2ccccc2)C(=O)CO)c1` [Example 59, 3-endo-(8-{2-[(2-hydroxyacetyl)phenethylamino]-ethyl}-8-azabicyclo[3.2.1]oct-3-yl)benzamide], for which the Emax in test [2] was -2%.
Turning to `O=C(CO)N(CCN1[C@@H]2CC[C@H]1C[C@@H](c1cccc(O)c1)C2)Cc1ccccc1` [Example 1, N-benzyl-2-hydroxy-N-{2-[3-endo-(3-hydroxyphenyl)-8-azabicyclo[3.2.1]oct-8-yl]ethyl}acetamide], the pKi in test [1] is 10.1. Besides, in test [2], the Emax is 6%.
